Calls of active or inactive are those of the source. The rule behind the calls is not given here.
Tests used:
HCT-116 = experiment: Cytotoxicity in human HCT-116 cells assessed as reduction in cell viability incubated for 72 hrs by MTT assay; assay type: functional, cell-based; details: HCT-116, 72 h
[1] = Cytotoxicity in human hTERT-HPNE cells assessed as reduction in cell viability incubated for 72 hrs by MTT assay; assay type: cell-based
[2] = Inhibition of cell proliferation in human PD002 cells incubated for 72 hrs; assay type: functional
[3] = target: T1, UDP-N-acetylglucosamine--dolichyl-phosphate N-acetylglucosaminephosphotransferase (Homo sapiens) (UniProt Q9H3H5); experiment: Inhibition of DPAGT1 in human SiHa cells assessed as reduction in snail protein expression incubated for 24 hrs by Western blot assay; assay type: cell-based
T1 sequence (whole entry): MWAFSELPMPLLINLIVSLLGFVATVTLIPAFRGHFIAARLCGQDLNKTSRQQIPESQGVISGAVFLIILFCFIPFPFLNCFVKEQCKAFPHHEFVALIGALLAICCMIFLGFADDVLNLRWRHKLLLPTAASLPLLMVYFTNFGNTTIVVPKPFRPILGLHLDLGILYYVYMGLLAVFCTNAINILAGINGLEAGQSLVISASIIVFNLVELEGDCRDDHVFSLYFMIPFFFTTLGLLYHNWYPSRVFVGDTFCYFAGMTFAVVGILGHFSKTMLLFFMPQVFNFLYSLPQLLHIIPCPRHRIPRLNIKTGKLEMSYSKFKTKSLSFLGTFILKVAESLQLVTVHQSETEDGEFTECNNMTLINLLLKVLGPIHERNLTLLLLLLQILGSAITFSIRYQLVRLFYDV

[4] = Synergistic cytotoxicity in human PD002 cells assessed as FIC at 0.1 uM incubated for 72 hrs in presence of 0.63 uM paclitaxel by IncuCyte live cell analysis imaging system based assay; assay type: functional
[5] = Synergistic cytotoxicity in human PD002 cells assessed as FIC at 0.1 uM incubated for 72 hrs in presence of […] paclitaxel by IncuCyte live cell analysis imaging system based assay; assay type: functional
[6] = Synergistic cytotoxicity in human PD002 cells assessed as FIC at 0.2 uM incubated for 72 hrs in presence of 0.0049 uM paclitaxel by IncuCyte live cell analysis imaging system based assay; assay type: functional
[7] = Synergistic cytotoxicity in human PD002 cells assessed as FIC at 2 uM incubated for 72 hrs in presence of 0.039 uM paclitaxel by IncuCyte live cell analysis imaging system based assay; assay type: functional
PANC-1 = experiment: Inhibition of DPAGT1 protein expression in human PANC-1 cells at 0.2 uM incubated for 24 hrs by Western blot analysis; assay type: functional, cell-based
ASPC1 = experiment: Inhibition of DPAGT1 protein expression in human ASPC1 cells at 0.2 uM incubated for 24 hrs by Western blot analysis; assay type: functional, cell-based
[8] = Cytotoxicity in human PD002 cells assessed as phase area confluence level at 50 uM incubated for 72 hrs by IncuCyte live cell analysis imaging system based assay (reference value: 70%)

In the case of CO[C@H]1[C@@H](O)[C@H](n2ccc(=O)[nH]c2=O)O[C@@H]1[C@@H](O[C@H]1OC(C(=O)NCc2ccc(N3CCC(Oc4ccc(OC(F)(F)F)cc4)CC3)cc2)=C[C@H](O)[C@@H]1O)C(N)=O, the IC50 (HCT-116) is reported as 15 µM, the IC50 [1] is reported as greater than 50 µM and the “inhibition (INH)” value [2] is reported as 20%. The inhibition [3] was “Active”, the FIC [4] was 0.5 and the FIC [5] was 0.13. For the same compound, the FIC [6] was 0.0096, the FIC [7] was 0.037 and the inhibition (PANC-1) was “Active”. The inhibition (ASPC1) was “Active” and the Activity [8] was 10%.

Source: ChEMBL document CHEMBL4699480 (J Med Chem, 2020)
